Here are results for 32 molecules from patent US10584115B2, “Substituted pyridine and pyrazine BMI-1 inhibitors” (PTC Therapeutics, Inc., priority 2013, dated 2020).

A word on the melting point: it is the temperature, or range, at which the solid turns liquid. As usually defined, the EC50 is the concentration at which the effect is half-maximal.

Read-outs that look alike come from different tables or passages of the source.

The test system of one series is Bmi-1 protein. The series can be described thus: Sandwich ELISA Assay (Bmi-1 protein level in HT-1080 cells after compound treatment). Type of series: cell-based. An outline of the steps:
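Sandwich ELISA quantified Bmi-1 protein against recombinant standard (125–8000 pg/mL), with lysates captured overnight at 4 °C and signal by HRP/TMB at 450 nm (570 nm reference). Lysates came from HT-1080 cells incubated 40–48 h with test compounds in 0.5% DMSO.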
(In general: An ELISA detects its analyte on a solid surface through an enzyme-linked reagent.)

[1] abbreviates: Table 1, Bmi-1 sandwich ELISA, read-out: ELISA EC50 value for Bmi-1 protein.

As for `Cc1cn2c(-c3cncc(Nc4ccc(OC(F)F)cc4)n3)c(C)nc2c(C)n1` [compound 489, N-[4-(difluoromethoxy)phenyl]-6-(2,6,8-trimethylimidazo[1,2-a]pyrazin-3-yl)pyrazin-2-amine], the melting point lay in the range of 140 to 141 °C. Also, the EC50 in the series with Bmi-1 protein (setting [1]) was in the range of 1 to 10 nM.
For the molecule `Cc1cn2c(-c3cc(C#N)cc(Nc4ccc(C(F)(F)F)cc4)n3)c(C3CC3)nc2c(C)n1` [compound 491, 2-(2-cyclopropyl-6,8-dimethylimidazo[1,2-a]pyrazin-3-yl)-6-{[4-(trifluoromethyl)phenyl]amino}pyridine-4-carbonitrile], the melting point was in the range of 150 to 152 °C. For the same molecule, the EC50 in the series with Bmi-1 protein (setting [1]) lay within 100 to 3000 nM.
The corresponding values for `Cc1nc2cc(F)c(F)cc2n1-c1cncc(Nc2ccc(C(F)F)cc2)n1` [compound 501, 6-(5,6-difluoro-2-methyl-1H-benzimidazol-1-yl)-N-[4-(difluoromethyl)phenyl]pyrazin-2-amine] are 209 to 211 °C and 10 to 100 nM.
On to `Fc1ccn2nc(C3CC3)c(-c3cncc(Nc4ccc(C(F)(F)F)cc4)n3)c2c1` [compound 535, 6-(2-cyclopropyl-5-fluoropyrazolo[1,5-a]pyridin-3-yl)-N-[4-(trifluoromethyl)phenyl]pyrazin-2-amine], for which the melting point was 122 to 125 °C. For the same molecule, the EC50 in the series on Bmi-1 protein (setting [1]) was in the range of 10 to 100 nM.
Turning to `[O-][n+]1cc(Nc2ccc(C(F)(F)F)cc2)nc(-c2c(C3CC3)nn3ccc(F)cc23)c1` [compound 536, 6-(2-cyclopropyl-5-fluoropyrazolo[1,5-a]pyridin-3-yl)-N-[4-(trifluoromethyl)phenyl]pyrazin-2-amine 4-oxide], the melting point was 183 to 186 °C. Further, in the series on Bmi-1 protein (setting [1]), the EC50 was in the range of 10 to 100 nM.
The like results for `CCc1nn2ccc(F)cc2c1-c1cncc(Nc2ccc(C(F)(F)F)cc2)n1` [compound 551, 6-(2-ethyl-5-fluoropyrazolo[1,5-a]pyridin-3-yl)-N-[4-(trifluoromethyl)phenyl]pyrazin-2-amine] were, in that order, 129 to 131 °C and 100 to 3000 nM.
The corresponding values for `COc1ccc(Nc2cncc(-n3c(C)nc4ccc(F)cc43)n2)cc1` [compound 552, 6-(6-fluoro-2-methyl-1H-benzimidazol-1-yl)-N-(4-methoxyphenyl)pyrazin-2-amine] are 184 to 186 °C and under 1 nM.
The molecule `Cc1nc2ccc(F)cc2n1-c1cncc(Nc2ccc(C#N)cc2)n1` [compound 555, 4-{[6-(6-fluoro-2-methyl-1H-benzimidazol-1-yl)pyrazin-2-yl]amino}benzonitrile] showed a melting point of 300 to 303 °C. For the same molecule, the EC50 with Bmi-1 protein (setting [1]) was in the range of 100 to 3000 nM.
As for `COC(=O)c1ccc(Nc2cncc(-n3c(C)nc4ccc(F)cc43)n2)cc1` [compound 556, methyl 4-{[6-(6-fluoro-2-methyl-1H-benzimidazol-1-yl)pyrazin-2-yl]amino}benzoate], the melting point is 198 to 200 °C. The EC50 in the series on Bmi-1 protein (setting [1]) was in the range of 10 to 100 nM.
On to `Cc1nc2ccc(F)cc2n1-c1cncc(Nc2ccc(N)cc2)n1` [compound 558, N-[6-(6-fluoro-2-methyl-1H-benzimidazol-1-yl)pyrazin-2-yl]benzene-1,4-diamine], for which the melting point lay within 189 to 191 °C. In the series on Bmi-1 protein (setting [1]), the EC50 lay in the range of 10 to 100 nM.
The corresponding values for `Cc1cccc(Nc2cncc(-n3c(C)nc4ccc(F)cc43)n2)c1` [compound 560, 6-(6-fluoro-2-methyl-1H-benzimidazol-1-yl)-N-(3-methylphenyl)pyrazin-2-amine] are 173 to 174 °C and 100 to 3000 nM.
`Cc1nc2ccc(F)cn2c1-c1cncc(Nc2ccccc2)n1` [compound 590, 6-(6-fluoro-2-methylimidazo[1,2-a]pyridin-3-yl)-N-phenylpyrazin-2-amine] returned a melting point of 216 to 218 °C. For the same molecule, in the series on Bmi-1 protein (read-out: ELISA EC50 value for Bmi-1 protein, Table 1, Bmi-1 sandwich ELISA), the EC50 was in the range of 10 to 100 nM.
Turning to `Cc1nc2ccc(F)cn2c1-c1cncc(Nc2ccc(F)cc2)n1` [compound 591, 6-(6-fluoro-2-methylimidazo[1,2-a]pyridin-3-yl)-N-(4-fluorophenyl)pyrazin-2-amine], the melting point lay within 208 to 210 °C. Also, in the series with Bmi-1 protein (setting [1]), the EC50 was in the range of 100 to 3000 nM.
The corresponding values for `Cc1nc2ccc(F)cn2c1-c1cncc(Nc2ccc(Cl)cc2)n1` [compound 593, N-(4-chlorophenyl)-6-(6-fluoro-2-methylimidazo[1,2-a]pyridin-3-yl)pyrazin-2-amine] are 215 to 218 °C and 1 to 10 nM.
The corresponding values for `Cc1nc2ccc(F)cn2c1-c1cncc(Nc2cccc(C(F)(F)F)c2)n1` [compound 594, 6-(6-fluoro-2-methylimidazo[1,2-a]pyridin-3-yl)-N-[3-(trifluoromethyl)phenyl]pyrazin-2-amine] are 188 to 190 °C and 100 to 3000 nM.
The corresponding values for `Cc1nc2ccc(F)cn2c1-c1cncc(Nc2cccc(F)c2)n1` [compound 595, 6-(6-fluoro-2-methylimidazo[1,2-a]pyridin-3-yl)-N-(3-fluorophenyl)pyrazin-2-amine] are 270 to 273 °C and 10 to 100 nM.
In turn, `COc1cccc(Nc2cncc(-c3c(C)nc4ccc(F)cn34)n2)c1` [compound 596, 6-(6-fluoro-2-methylimidazo[1,2-a]pyridin-3-yl)-N-(3-methoxyphenyl)pyrazin-2-amine] displayed a melting point of 270 to 273 °C. The EC50 in the series with Bmi-1 protein (setting [1]) was in the range of 1 to 10 nM.
The like results for `Cc1nc2ccc(F)cn2c1-c1cncc(Nc2cccc(Cl)c2)n1` [compound 597, N-(3-chlorophenyl)-6-(6-fluoro-2-methylimidazo[1,2-a]pyridin-3-yl)pyrazin-2-amine] were, in that order, 272 to 275 °C and 10 to 100 nM.
As to `Cc1nc2ccc(F)cn2c1-c1cncc(Nc2ccccc2F)n1` [compound 598, 6-(6-fluoro-2-methylimidazo[1,2-a]pyridin-3-yl)-N-(2-fluorophenyl)pyrazin-2-amine], the melting point lay within 218 to 220 °C. Moreover, in the series with Bmi-1 protein (setting [1]), the EC50 fell in the range of 100 to 3000 nM.
For the molecule `CCc1nc2ccc(F)cc2n1-c1cncc(Nc2ccc(OC)cc2)n1` [compound 621, 6-(2-ethyl-6-fluoro-1H-benzimidazol-1-yl)-N-(4-methoxyphenyl)pyrazin-2-amine], the melting point is 218 to 220 °C. For the same molecule, the EC50 in the series with Bmi-1 protein (setting [1]) is under 1 nM.
The like results for `CCc1nc2ccc(F)cc2n1-c1cncc(Nc2ccc(C)cc2)n1` [compound 622, 6-(2-ethyl-6-fluoro-1H-benzimidazol-1-yl)-N-(4-methylphenyl)pyrazin-2-amine] were, in that order, 223 to 226 °C and 1 to 10 nM.
The like results for `CCc1nc2ccc(F)cc2n1-c1cncc(Nc2ccc(Cl)cc2)n1` [compound 623, N-(4-chlorophenyl)-6-(2-ethyl-6-fluoro-1H-benzimidazol-1-yl)pyrazin-2-amine] were, in that order, 252 to 255 °C and 1 to 10 nM.
The like results for `CCc1nc2ccc(F)cc2n1-c1cncc(Nc2cccc(OC)c2)n1` [compound 624, 6-(2-ethyl-6-fluoro-1H-benzimidazol-1-yl)-N-(3-methoxyphenyl)pyrazin-2-amine] were, in that order, 179 to 181 °C and 10 to 100 nM.
As for `CCc1nc2ccc(F)cc2n1-c1cncc(Nc2cccc(Cl)c2)n1` [compound 625, N-(3-chlorophenyl)-6-(2-ethyl-6-fluoro-1H-benzimidazol-1-yl)pyrazin-2-amine], the melting point was in the range of 192 to 195 °C. Also, in the series on Bmi-1 protein (setting [1]), the concentration giving a half-maximal response (EC50) is 100 to 3000 nM.
In the case of `CCc1nc2ccc(F)cc2n1-c1cncc(Nc2cccc(F)c2)n1` [compound 626, 6-(2-ethyl-6-fluoro-1H-benzimidazol-1-yl)-N-(3-fluorophenyl)pyrazin-2-amine], the melting point is 228 to 230 °C. In the series with Bmi-1 protein (setting [1]), the EC50 was 100 to 3000 nM.
`Cc1ccc(Nc2cncc(-c3c(C)noc3C)n2)cc1` [compound 635, 6-(3,5-dimethyl-1,2-oxazol-4-yl)-N-(4-methylphenyl)pyrazin-2-amine] displayed a melting point of 186 to 188 °C. In addition, the half-maximal effective concentration (EC50) with Bmi-1 protein (setting [1]) lay within 1 to 10 nM.
Consider `COc1ccc(Nc2cncc(-c3c(C)noc3C)n2)cc1` [compound 636, 6-(3,5-dimethyl-1,2-oxazol-4-yl)-N-(4-methoxyphenyl)pyrazin-2-amine], for which the melting point is 154 to 155 °C. Moreover, in the series with Bmi-1 protein (setting [1]), the EC50 is 10 to 100 nM.
In the case of `COc1ccc(Nc2cncc(-c3c(C)noc3C)n2)cc1F` [compound 637, 6-(3,5-dimethyl-1,2-oxazol-4-yl)-N-(3-fluoro-4-methoxyphenyl)pyrazin-2-amine], the melting point lay in the range of 158 to 159 °C. For the same molecule, the EC50 with Bmi-1 protein (setting [1]) is 10 to 100 nM.
Molecule `COc1ccc(Nc2cncc(-c3c(C)noc3C)n2)cn1` [compound 638, 6-(3,5-dimethyl-1,2-oxazol-4-yl)-N-(6-methoxypyridin-3-yl)pyrazin-2-amine] displayed a melting point of 173 to 174 °C. Besides, the EC50 with Bmi-1 protein (setting [1]) was in the range of 100 to 3000 nM.
In turn, `Cc1noc(C)c1-c1cncc(Nc2ccc3c(c2)OCO3)n1` [compound 639, N-(1,3-benzodioxol-5-yl)-6-(3,5-dimethyl-1,2-oxazol-4-yl)pyrazin-2-amine] gave a melting point of 185 to 186 °C. In the series with Bmi-1 protein (setting [1]), the EC50 was 100 to 3000 nM.
`Cc1nc2ccc(F)cn2c1-c1cc(C#N)cc(Nc2ccccc2)n1` [compound 646, 2-(6-fluoro-2-methylimidazo[1,2-a]pyridin-3-yl)-6-(phenylamino)pyridine-4-carbonitrile] registered a melting point of 176 to 178 °C. Further, in the series with Bmi-1 protein (setting [1]), the EC50 lay in the range of 100 to 3000 nM.
Turning to `Cc1nc2ccc(F)cn2c1-c1cc(C#N)cc(Nc2ccc(Cl)cc2)n1` [compound 647, 2-[(4-chlorophenyl)amino]-6-(6-fluoro-2-methylimidazo[1,2-a]pyridin-3-yl)pyridine-4-carbonitrile], the melting point was in the range of 148 to 151 °C. Besides, the EC50 in the series with Bmi-1 protein (setting [1]) was in the range of 10 to 100 nM.
